Results as given in BigSolDB 2.1.

COC(=O)c1ccc2cc(C(=O)OC)ccc2c1
solubility (mole fraction) (in DMAc, 299.11 K): 0.00345
solubility (mole fraction) (in DMAc, 315.05 K): 0.0072
solubility (mole fraction) (in DMAc, 320.35 K): 0.00895
solubility (mole fraction) (in DMAc, 326.25 K): 0.0112
solubility (mole fraction) (in DMAc, 330.38 K): 0.0129
solubility (mole fraction) (in DMAc, 337.27 K): 0.0167
solubility (mole fraction) (in DMAc, 342.39 K): 0.0202
solubility (mole fraction) (in DMAc, 352.75 K): 0.0301
solubility (mole fraction) (in DMAc, 358.55 K): 0.0377
solubility (mole fraction) (in DMAc, 364.4 K): 0.0452
solubility (mole fraction) (in DMAc, 370.8 K): 0.0573
solubility (mole fraction) (in DMAc, 376.26 K): 0.0674
solubility (mole fraction) (in DMAc, 381.71 K): 0.0814
solubility (mole fraction) (in DMAc, 383.38 K): 0.0855
solubility (mole fraction) (in DMAc, 387.01 K): 0.0963
solubility (mole fraction) (in DMAc, 391.14 K): 0.107
solubility (mole fraction) (in DMAc, 392.17 K): 0.112
solubility (mole fraction) (in DMF, 303.31 K): 0.00253
solubility (mole fraction) (in DMF, 309.36 K): 0.00341
solubility (mole fraction) (in DMF, 317.9 K): 0.00521
solubility (mole fraction) (in DMF, 329.65 K): 0.00884
solubility (mole fraction) (in DMF, 335.43 K): 0.0116
solubility (mole fraction) (in DMF, 342.21 K): 0.015
solubility (mole fraction) (in DMF, 349.85 K): 0.0193
solubility (mole fraction) (in DMF, 357.96 K): 0.0272
solubility (mole fraction) (in DMF, 362.73 K): 0.0323
solubility (mole fraction) (in DMF, 366.6 K): 0.0396
solubility (mole fraction) (in DMF, 368.38 K): 0.0408
solubility (mole fraction) (in DMF, 373.02 K): 0.0495
solubility (mole fraction) (in DMF, 377.86 K): 0.0574
solubility (mole fraction) (in DMF, 379.66 K): 0.0611
solubility (mole fraction) (in DMF, 382.14 K): 0.0661
solubility (mole fraction) (in DMF, 383.38 K): 0.0699
solubility (mole fraction) (in DMSO, 298.28 K): 0.000669
solubility (mole fraction) (in DMSO, 308.07 K): 0.00113
solubility (mole fraction) (in DMSO, 316.57 K): 0.00179
solubility (mole fraction) (in DMSO, 324.97 K): 0.00272
solubility (mole fraction) (in DMSO, 340.85 K): 0.00537
solubility (mole fraction) (in DMSO, 347.18 K): 0.00726
solubility (mole fraction) (in DMSO, 353.35 K): 0.00952
solubility (mole fraction) (in DMSO, 356.66 K): 0.0109
solubility (mole fraction) (in DMSO, 365.19 K): 0.0157
solubility (mole fraction) (in DMSO, 369.88 K): 0.016
solubility (mole fraction) (in DMSO, 374.65 K): 0.0226
solubility (mole fraction) (in DMSO, 386.85 K): 0.0352
solubility (mole fraction) (in DMSO, 394.81 K): 0.0471
solubility (mole fraction) (in DMSO, 405.07 K): 0.069
solubility (mole fraction) (in NMP, 293.2 K): 0.0056
solubility (mole fraction) (in NMP, 296.73 K): 0.00577
solubility (mole fraction) (in NMP, 300.48 K): 0.00606
solubility (mole fraction) (in NMP, 303.5 K): 0.00632
solubility (mole fraction) (in NMP, 308.77 K): 0.00669
solubility (mole fraction) (in NMP, 311.81 K): 0.00687
solubility (mole fraction) (in NMP, 317.1 K): 0.0074
solubility (mole fraction) (in NMP, 322.89 K): 0.00803
solubility (mole fraction) (in NMP, 328.16 K): 0.00864
solubility (mole fraction) (in NMP, 336.69 K): 0.00914
solubility (mole fraction) (in NMP, 345.34 K): 0.0103
solubility (mole fraction) (in NMP, 354.23 K): 0.0115
solubility (mole fraction) (in NMP, 360.09 K): 0.0125
solubility (mole fraction) (in NMP, 368.69 K): 0.0132
solubility (mole fraction) (in NMP, 375.38 K): 0.016
solubility (mole fraction) (in NMP, 383.36 K): 0.0167
solubility (mole fraction) (in NMP, 393.2 K): 0.0195
solubility (mole fraction) (in NMP, 404.46 K): 0.0251
solubility (mole fraction) (in NMP, 409.92 K): 0.0271
solubility (mole fraction) (in NMP, 414.36 K): 0.0299
solubility (mole fraction) (in NMP, 418.83 K): 0.0328
solubility (mole fraction) (in NMP, 423.7 K): 0.0379
solubility (mole fraction) (in NMP, 425.77 K): 0.0399
solubility (mole fraction) (in acetic acid, 292.49 K): 0.00051
solubility (mole fraction) (in acetic acid, 295.65 K): 0.000621
solubility (mole fraction) (in acetic acid, 300.35 K): 0.000804
solubility (mole fraction) (in acetic acid, 306.86 K): 0.00116
solubility (mole fraction) (in acetic acid, 311.63 K): 0.00147
solubility (mole fraction) (in acetic acid, 316.5 K): 0.0019
solubility (mole fraction) (in acetic acid, 320.65 K): 0.00232
solubility (mole fraction) (in acetic acid, 323 K): 0.00254
solubility (mole fraction) (in acetic acid, 329.15 K): 0.00381
solubility (mole fraction) (in acetic acid, 333.47 K): 0.00428
solubility (mole fraction) (in acetic acid, 337.2 K): 0.0051
solubility (mole fraction) (in acetic acid, 343.3 K): 0.00657
solubility (mole fraction) (in acetic acid, 350.13 K): 0.00833
solubility (mole fraction) (in acetic acid, 357.38 K): 0.0113
solubility (mole fraction) (in acetic acid, 362.8 K): 0.0143
solubility (mole fraction) (in acetic acid, 366.66 K): 0.0169
solubility (mole fraction) (in acetic acid, 372.51 K): 0.0217
solubility (mole fraction) (in acetic acid, 375.64 K): 0.0248
solubility (mole fraction) (in acetic acid, 381.78 K): 0.0304
solubility (mole fraction) (in acetic acid, 385.96 K): 0.0352
solubility (mole fraction) (in acetic acid, 392.47 K): 0.046
solubility (mole fraction) (in acetic acid, 394.71 K): 0.0493
solubility (mole fraction) (in acetic acid, 398.5 K): 0.0564
solubility (mole fraction) (in acetic acid, 400.54 K): 0.0607
